According to PubChem BioAssay AID248 (DTP/NCI, 2004):
Inconclusive results and toxic doses are left out. Rule as the data show it: active = T/C of 150% or more; inactive = T/C below 125%.

System: L1210 leukemia ip in BDF1 mice, survival T/C
Test: NCI In Vivo Anticancer Drug Screen. Data for tumor model L1210 Leukemia (intraperitoneal) in B6D2F1 (BDF1) mice
Conditions: endpoint: mean survival time, higher = longer survival
Method in brief: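 Ratio derived from survival: compound-dosed mice over vehicle-dosed mice, all bearing a transplantable tumor.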

[1] = dose: 50.0 mg/kg/injection, schedule: Q01DX001 (ip), vehicle: Klucel (hydroxypropylcellulose) (HPC)
[2] = dose: 100.0 mg/kg/injection, schedule: Q01DX001 (ip), vehicle: Klucel (hydroxypropylcellulose) (HPC)
[3] = dose: 100.0 mg/kg/injection, schedule: Q01DX001 (ip), vehicle: saline
[4] = dose: 100.0 mg/kg/injection, schedule: Q01DX009 (ip), vehicle: Klucel (hydroxypropylcellulose) (HPC)
[5] = dose: 200.0 mg/kg/injection, schedule: Q01DX009 (ip), vehicle: Klucel (hydroxypropylcellulose) (HPC)
[6] = dose: 400.0 mg/kg/injection, schedule: Q01DX009 (ip), vehicle: Klucel (hydroxypropylcellulose) (HPC)
[7] = dose: 100.0 mg/kg/injection, schedule: Q01DX009 (ip), vehicle: saline with Tween-80
[8] = dose: 200.0 mg/kg/injection, schedule: Q01DX009 (ip), vehicle: saline with Tween-80
[9] = dose: 100.0 mg/kg/injection, schedule: Q01DX009 (ip), vehicle: saline
[10] = dose: 200.0 mg/kg/injection, schedule: Q01DX009 (ip), vehicle: saline
[11] = dose: 200.0 mg/kg/injection, schedule: Q01DX001 (ip), vehicle: Klucel (hydroxypropylcellulose) (HPC)

Measured: T/C

N=C(N)SC(c1ccccc1)c1ccccc1
inactive: dose: 25.0 mg/kg/injection, schedule: Q01DX001 (ip), vehicle: Klucel (hydroxypropylcellulose) (HPC) 97 % of control | [1] 104 % of control | [2] 101 % of control | [3] 98 % of control

O=C(O)c1ccc(-c2ccc(O)cc2)cc1
inactive: [4] 98 % of control | [5] 101 % of control | [6] 102 % of control

CC1(C)COC(CC2CCCCC2)=N1
inactive: dose: 25.0 mg/kg/injection, schedule: Q01DX009 (ip), vehicle: saline with Tween-80 105 % of control | dose: 50.0 mg/kg/injection, schedule: Q01DX009 (ip), vehicle: saline with Tween-80 102 % of control | dose: 50.0 mg/kg/injection, schedule: Q04DX003 (ip), vehicle: saline 94 % of control | [7] 102 % of control | dose: 100.0 mg/kg/injection, schedule: Q04DX003 (ip), vehicle: saline 91 % of control | [8] 96 % of control | dose: 200.0 mg/kg/injection, schedule: Q04DX003 (ip), vehicle: saline 86 % of control

O=C(O)CNC(=O)c1cccc(Cl)c1
inactive: dose: 100.0 mg/kg/injection, schedule: Q04DX002 (ip), vehicle: saline with Tween-80 95 % of control | dose: 200.0 mg/kg/injection, schedule: Q04DX002 (ip), vehicle: saline with Tween-80 95 % of control | dose: 400.0 mg/kg/injection, schedule: Q04DX002 (ip), vehicle: saline with Tween-80 95 % of control

COc1ccc(/C=N/NC(=O)c2ccccc2O)cc1
inactive: [4] 98 % of control | [5] 96 % of control | [6] 112 % of control

O=C1NC(=O)C(CCCCCl)N1 (centres undefined)
inactive: [3] 91 % of control | dose: 200.0 mg/kg/injection, schedule: Q01DX001 (ip), vehicle: saline 87 % of control | dose: 400.0 mg/kg/injection, schedule: Q01DX001 (ip), vehicle: saline 94 % of control

O=C1c2c(Cl)cccc2Cc2cccc(Cl)c21
inactive: dose: 37.5 mg/kg/injection, schedule: Q01DX001 (ip), vehicle: Klucel (hydroxypropylcellulose) (HPC) 107 % of control | dose: 75.0 mg/kg/injection, schedule: Q01DX001 (ip), vehicle: Klucel (hydroxypropylcellulose) (HPC) 102 % of control | dose: 150.0 mg/kg/injection, schedule: Q01DX001 (ip), vehicle: Klucel (hydroxypropylcellulose) (HPC) 100 % of control

C1=CC2C=CC1C2
inactive: [7] 97 % of control | dose: 100.0 mg/kg/injection, schedule: Q04DX003 (ip), vehicle: saline with Tween-80 89 % of control | [8] 92 % of control | dose: 200.0 mg/kg/injection, schedule: Q04DX003 (ip), vehicle: saline with Tween-80 92 % of control | dose: 400.0 mg/kg/injection, schedule: Q01DX009 (ip), vehicle: saline with Tween-80 89 % of control | dose: 400.0 mg/kg/injection, schedule: Q04DX003 (ip), vehicle: saline with Tween-80 89 % of control

CC(C)(C)C1CCC(Cl)C(O)C1 (centres undefined)
inactive: [9] 104 % of control | [10] 100 % of control

OCC1(c2ccccc2)CCCC1(CO)c1ccccc1 (centres undefined)
inactive: dose: 15.0 mg/kg/injection, schedule: Q01DX001 (ip), vehicle: carboxymethylcellulose (CMC) 95 % of control | dose: 30.0 mg/kg/injection, schedule: Q01DX001 (ip), vehicle: carboxymethylcellulose (CMC) 93 % of control | dose: 60.0 mg/kg/injection, schedule: Q01DX001 (ip), vehicle: carboxymethylcellulose (CMC) 91 % of control

COC(=O)C1CCC2(C)CCC(=O)C(C)C2C1 (centres undefined)
inactive: [2] 101 % of control | dose: 100.0 mg/kg/injection, schedule: Q04DX003 (ip), vehicle: Klucel (hydroxypropylcellulose) (HPC) 104 % of control | [11] 104 % of control | dose: 200.0 mg/kg/injection, schedule: Q04DX003 (ip), vehicle: Klucel (hydroxypropylcellulose) (HPC) 106 % of control | dose: 400.0 mg/kg/injection, schedule: Q01DX001 (ip), vehicle: Klucel (hydroxypropylcellulose) (HPC) 92 % of control | dose: 400.0 mg/kg/injection, schedule: Q04DX003 (ip), vehicle: Klucel (hydroxypropylcellulose) (HPC) 104 % of control

COc1ccc(-n2c(=O)c(N=Nc3ccc(Br)cc3)c(O)n(-c3ccccc3OC)c2=S)cc1
inactive: [1] 106 % of control | [2] 103 % of control | [11] 103 % of control

CN(C)C(N)=S
inactive: [9] 91 % of control | [10] 100 % of control | dose: 400.0 mg/kg/injection, schedule: Q01DX009 (ip), vehicle: saline 100 % of control
